Here are results for one compound from patent US6365643B1, “Photoinitiators for cationic curing” (Th. Goldschmidt AG, priority 1999, dated 2002).

The nature of data set [1]: Miscibility with organopolysiloxanes containing epoxy groups. Format: physicochemical.
Data set [2] in a line: Solubility in white spirit. The class given is physicochemical. An excerpt: The solubility of the cationic photoinitiators of the invention was compared with the solubility of commercial, hydroxyl-bearing cationic photoinitiators.

Read-outs that look alike come from different tables or passages of the source.

Turning to `CCCCCCCCCCCCC(O)COc1ccc([I+]c2ccccc2)cc1` (stereo not drawn) [CD-1012], the “miscibility with organopolysiloxanes containing epoxy groups” value in data set [1] is “no miscibility”. For the same compound, the “solubility in white spirit” value was “insoluble” in data set [2] and “insoluble” in data set [2] (Table 1, Comparison 1).
